Measured values: ChEMBL document CHEMBL3085665, “Gallic acid is the major component of grape seed extract that inhibits amyloid fibril formation” (Bioorg Med Chem Lett, 2013)
pIC50: −log10 of the molar value. Activity calls are given as the source filed them. The rule behind the calls is not given here.

How the values were obtained:
[1] = species: Homo sapiens; experiment: Inhibition of reduced carboxymethylated-kappa-casein (unknown origin) conversion to amyloid fibrils at 1:2 protein to compound molar ratio after 1000 mins by thioflavin T fluorescence assay relative to control
[2] = species: Homo sapiens; experiment: Inhibition of reduced carboxymethylated-kappa-casein (unknown origin) conversion to amyloid fibrils at 0.1:1 to 2:1 compound to protein molar ratio after 1000 mins by thioflavin T fluorescence assay
[3] = biological target: Amyloid-beta precursor protein (Homo sapiens) (UniProt P05067); experiment: Inhibition of amyloid beta (1 to 40) (unknown origin) aggregation at 1:0.1 to 1:2 protein to compound molar ratio after 20 hrs by transmission electron microscopic analysis
Amyloid-beta precursor protein (Homo sapiens), sequence (P05067 whole entry): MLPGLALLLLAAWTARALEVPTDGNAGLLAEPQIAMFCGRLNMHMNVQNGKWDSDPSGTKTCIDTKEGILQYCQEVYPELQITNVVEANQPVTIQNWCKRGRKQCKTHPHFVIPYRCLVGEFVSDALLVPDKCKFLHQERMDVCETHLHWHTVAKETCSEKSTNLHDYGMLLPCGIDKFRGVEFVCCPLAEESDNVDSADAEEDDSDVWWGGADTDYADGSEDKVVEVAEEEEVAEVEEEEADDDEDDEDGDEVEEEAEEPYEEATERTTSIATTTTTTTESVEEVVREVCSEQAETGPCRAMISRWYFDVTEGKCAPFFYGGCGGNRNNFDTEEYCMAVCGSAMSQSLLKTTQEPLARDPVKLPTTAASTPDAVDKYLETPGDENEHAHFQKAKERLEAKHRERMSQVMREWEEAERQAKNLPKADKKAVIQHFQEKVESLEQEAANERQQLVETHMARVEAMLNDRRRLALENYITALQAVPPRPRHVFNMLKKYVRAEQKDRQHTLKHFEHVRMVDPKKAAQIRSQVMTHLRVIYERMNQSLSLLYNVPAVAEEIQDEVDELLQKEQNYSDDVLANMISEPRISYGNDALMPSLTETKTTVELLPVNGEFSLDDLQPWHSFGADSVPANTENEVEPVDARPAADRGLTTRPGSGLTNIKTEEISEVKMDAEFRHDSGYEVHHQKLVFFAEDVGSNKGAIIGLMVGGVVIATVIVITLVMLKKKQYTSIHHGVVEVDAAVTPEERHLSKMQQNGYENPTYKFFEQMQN

[4] = biological target: Amyloid-beta precursor protein (Homo sapiens) (UniProt P05067); experiment: Inhibition of amyloid beta (1 to 40) (unknown origin) aggregation at 1:0.1 to 1:2 protein to compound molar ratio up to 10 hrs by thioflavin T fluorescence assay
[5] = system: PC-12; experiment: Effect on RCM-kappa-casein-induced cytotoxicity against rat PC12 cells at 1:0.1 to 1:0.5 protein to compound molar ratio after 48 hrs by MTT assay; assay type: functional, cell-based
[6] = Effect on RCM-kappa-casein-induced cytotoxicity against rat PC12 cells assessed as increase in cell viability at 1:2 protein to compound molar ratio after 48 hrs by MTT assay relative to control; assay type: functional, PC-12
[7] = Reduction in RCM-kappa-casein-induced cytotoxicity against rat PC12 cells after 48 hrs by MTT assay; assay type: functional, cell-based; details: PC-12
[8] = Cytotoxicity against rat PC12 cells assessed as cell viability at 5 uM after 48 hrs by MTT assay; assay type: cell-based; details: pc-12, 48 h
[9] = species: Homo sapiens; experiment: Binding affinity to reduced carboxymethylated-kappa-casein (unknown origin) at 1:2 protein to compound molar ratio after 20 hrs by far-UV-CD spectroscopic analysis
[10] = species: Homo sapiens; experiment: Inhibition of reduced carboxymethylated-kappa-casein (unknown origin) conversion to amyloid fibrils assessed as decrease in number of long, unbranched and mature amyloid fibrils at 1:2 protein to compound molar ratio after 1000 mins by transmission electron microscopic analysis
[11] = species: Homo sapiens; experiment: Inhibition of reduced carboxymethylated-kappa-casein (unknown origin) conversion to amyloid fibrils at 1:0.1 protein to compound molar ratio after 1000 mins by thioflavin T fluorescence assay relative to control
[12] = species: Homo sapiens; experiment: Inhibition of reduced carboxymethylated-kappa-casein (unknown origin) conversion to amyloid fibrils at 1:0.5 protein to compound molar ratio after 1000 mins by thioflavin T fluorescence assay relative to control
[13] = species: Homo sapiens; experiment: Inhibition of reduced carboxymethylated-kappa-casein (unknown origin) conversion to amyloid fibrils at 1:1 protein to compound molar ratio after 1000 mins by thioflavin T fluorescence assay relative to control
[14] = (§1) Inhibition of reduced carboxymethylated-kappa-casein (unknown origin) conversion to amyloid fibrils after 1000 mins by thioflavin T fluorescence assay; design: species or system Homo sapiens
[15] = species: Homo sapiens; experiment: as §1

In the case of C[C@@H]1O[C@@H](OC[C@H]2O[C@@H](Oc3cc4c(O)cc(O)cc4[o+]c3-c3ccc(O)c(O)c3)[C@H](O)[C@@H](O)[C@@H]2O)[C@H](O)[C@H](O)[C@H]1O, the inhibition [1] was 54%.

In the case of Oc1cc(O)c2c(c1)OC(c1ccc(O)c(O)c1)C(O)C2 (configuration not stated), the inhibition [2] was “inactive”.

For Oc1cc(O)c2c(c1)O[C@H](c1ccc(O)c(O)c1)[C@H](O)C2, the inhibition [2] was “inactive”.

In the case of O=C(O)c1cc(O)c(O)c(O)c1 [GALLIC ACID], the inhibition [3] was “Active”, the inhibition [4] was “Active” and the Activity [5] was “inactive”. The Activity [6] was 88%, the Activity [7] was “Dose-dependent effect” and the Activity [8] was “Non-toxic”. For the same compound, the Activity [9] was “Active”, the inhibition [10] was “Active” and the inhibition [11] was 3%. It also gave an inhibition [12] of 54%, an inhibition [13] of 87% and a pIC50 [14] of 5.11. For the same compound, the inhibition [15] was “Dose-dependent effect” and the inhibition [1] was 98%.
